Reference: ChEMBL document CHEMBL3044989, “Structurecytotoxicity relationship of a novel series of miconazole-like compounds” (Med Chem Res, 2012)
Active and inactive are the calls of the source. No cut-off for these calls is given here.

Assays:
[1] = test system: Escherichia coli; experiment: Antimicrobial activity against Escherichia coli (DH5alpha) after 16 hr by spectrophotometry; assay type: functional, organism-based; conditions: DH5[alpha]
[2] = test system: K562; experiment: Cytotoxicity against Homo sapiens (human) K562 cells at 20 to 80 uM after 24 hr by MTT assay; assay type: functional, cell-based

Structure (SMILES)	IC50 [1] [µM]	Activity [2]
c1ccc(N/N=C(/Cn2cnc3ccccc32)c2ccccc2)cc1	12.3	
O=C1CNC(=O)N1C/C(=N/Nc1ccccc1)c1ccccc1	3.1	Active
O=c1cnn(C/C(=N/Nc2ccccc2)c2ccccc2)c(=O)[nH]1	14.6	Active
COc1ccc(/C(Cn2cnc3ccccc32)=N\Nc2ccccc2)cc1	13.7	
COc1ccc(/C(Cn2ccc(=O)[nH]c2=O)=N\Nc2ccccc2)cc1	6.2	
c1ccc(N/N=C(/Cn2nnc3ccccc32)c2ccccc2)cc1	3.4	Active
c1ccc(N/N=C(/Cn2ccnc2-c2ccccc2)c2ccccc2)cc1	16.8	
O=c1ccn(C/C(=N/Nc2ccccc2)c2ccccc2)c(=O)[nH]1	57.3	
O=c1[nH]c(=O)n(C/C(=N/Nc2ccccc2)c2ccccc2)cc1Cl	4.8	
c1ccc(N/N=C(/Cn2ccnc2)c2ccccc2)cc1	7.6	
Cc1cn(C/C(=N/Nc2ccccc2)c2ccccc2)c(=O)[nH]c1=O	7.1	
